Where two headings read alike, the source gives them in different places.
Key:
[1] = test system: Hela cells; experiment: MTT cytotoxicity in Hela cells; type: cell-based; details: Homo sapiens; Hela cervical cancer, 72 hours
[2] = test system: MHCC97-L cells; experiment: MTT cytotoxicity in MHCC97-L cells; type: cell-based; details: MHCC97L; MHCC97-L liver cancer, 72 hours
[3] = test system: HepG2 cells; experiment: MTT cytotoxicity in HepG2 cells; type: cell-based; details: Homo sapiens; HepG2 liver cancer, 72 hours
[4] = test system: SW480 cells; experiment: MTT cytotoxicity in SW480 cells; type: cell-based; details: Homo sapiens; SW480 colon cancer, 72 hours
[5] = test system: A549 cells; experiment: Cytotoxicity in A549 cells; type: cell-based; details: Homo sapiens
[6] = test system: NCI-H1650 cells; experiment: Cytotoxicity in NCI-H1650 cells; type: cell-based; details: Homo sapiens
[7] = test system: CCD-19Lu lung normal fibroblast; experiment: Cytotoxicity in lung normal fibroblast CCD-19Lu; type: cell-based; details: Homo sapiens
[8] = test system: A549 cells; experiment: Apoptosis by flow cytometry (Annexin V-FITC / propidium iodide); type: cell-based; details: 48 hours
Experimental: (§1) The effect of CK and CKD-4 on cell apoptosis and cell death is indicated by A549 cells treated with 60 μM of CK and 20 μM of CKD-4 for 48 hours that are analyzed by flow cytometry. […] Angiogenesis is another hallmark of cancer which plays an important role in metastasis and tumor growth. […] Cancer stem cells, owing to their ability of self-renewal, have become the major reason for relapse of tumor and poor prognosis. The efficacy of CKD-4 in lung cancer patient derived organoid is indicated using CellTiterGlo assay, where three state of the art clinical anti-cancer drugs, carboplatin, cisplatin, and paclitaxel are a positive control. The dosage of these three drugs is sufficient to trigger a 30% inhibition of cell viability. FIG. 6 and FIG. 7 indicated less than 30% suppression of cell viability is observed with treatment of 20 μM CKD-4.

[9] = test system: MS 1 cells; experiment: Tube formation (angiogenesis) on Matrigel; type: cell-based; details: 4 hours
Experimental: as §1

[10] = test system: NCI-H460 xenografts; experiment: NCI-H460 xenografts in nude mice; type: in vivo; details: 5 mg/kg intravenous once every two days; for Tumor volume: versus solvent control
[11] = target: T1, PRELID1 (Homo sapiens, UniProt Q9Y255); experiment: Proteome integral solubility alteration (PISA) in cells; type: cell-based; details: in cell
T1 construct: endogenous in cells; host or cells: A549
T1 sequence (Q9Y255 whole entry): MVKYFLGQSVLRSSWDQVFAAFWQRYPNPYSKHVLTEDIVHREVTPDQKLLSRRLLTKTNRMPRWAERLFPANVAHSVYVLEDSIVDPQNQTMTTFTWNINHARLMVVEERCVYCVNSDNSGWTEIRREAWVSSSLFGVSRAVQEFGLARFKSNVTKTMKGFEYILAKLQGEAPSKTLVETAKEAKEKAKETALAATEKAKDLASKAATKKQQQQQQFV
T1 sequence (O43715 whole entry partner): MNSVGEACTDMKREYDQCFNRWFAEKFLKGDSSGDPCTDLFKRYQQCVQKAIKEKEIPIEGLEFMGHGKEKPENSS
Source text: Two label free chemical proteomics, proteome integral […] alteration assay (PISA) and ProtargetMiner (PTM) are alternative strategies to study CK and CKD-4. PISA is a turbo-charged method development of thermal proteome profiling (TPP) which based on the principle that ligand induced stability of proteins is observed upon a temperature increase. PTM is used to contrast the proteome signature of CK and CKD-4 against the PTM database to reveal their mode of action. FIGS. 9A and 9B provide an overview of the PISA results in cells with CK and CKD-4, where data is shown as a volcano plot with the X-axis as log2 ΔSm of drug over DMSO treatment and the Y-axis as log 10 p-value. In FIGS. 10 and 11 the PTM result of CK and CKD-4 in cells are compared to 9 other anti-cancer drugs in A549 cells in the database and is plotted for OPLS-DA analysis.
(§2) Most probable target candidate proteins are ranked in PISA based on the absolute value of log2 ΔSm of drug relative to DMSO treatment and PTM ranking are based on the log2 fold change of drug over DMSO treatment. The rankings of two experiments are summed to provide a list of candidate drug targets.

[12] = target: T2, PRELID3b (Homo sapiens, UniProt Q9Y3B1); experiment: Cellular thermal shift assay by western blotting, PRELID3b; type: cell-based; details: A549 cells, one hour
T2 construct: endogenous in cells; host or cells: A549
T2 sequence (Q9Y3B1 whole entry): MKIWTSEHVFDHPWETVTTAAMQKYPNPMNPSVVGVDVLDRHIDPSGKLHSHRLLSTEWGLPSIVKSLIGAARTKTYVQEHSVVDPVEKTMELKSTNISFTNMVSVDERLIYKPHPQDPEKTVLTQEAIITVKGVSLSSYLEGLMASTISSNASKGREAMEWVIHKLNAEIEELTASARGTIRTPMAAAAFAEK
T2 sequence (O43715 whole entry partner): as the sequence (O43715 whole entry partner) above
Experimental: A549 cells were treated with 50 μM of CK or 15 uM of CKD-4 for one hour, where eight lysate aliquots were heated to indicated temperature.
as §2

[13] = target: T1, PRELID1; experiment: Cellular thermal shift assay by western blotting, PRELID1; type: cell-based; details: A549 cells, one hour
Experimental: A549 cells were treated with 50 μM of CK or 15 μM of CKD-4 for one hour, where eight lysate aliquots were heated to indicated temperature.
as §2

[14] = test system: cardiolipin in A549 cells; experiment: Mitochondrial cardiolipin quantification with cardiolipin probe; type: cell-based; details: 24-hour treatment
Experimental: FIG. 15A is a bar chart of the CK and CKD-4 induced apoptosis by quantification of cardiolipin in mitochondrial after treatment with CK or CKD-4 for 24 hours in A549 cells as mean±SD, **, P≤0.01, *, P≤0.05.
(§3) PRELID3b and PRELID1 are PRELI proteins. These proteins and TRIAP1 locate within the inter membrane space responsible for the regulation of phospholipid metabolism. Therefore, a cardiolipin probe is used to measure levels of mitochondrial cardiolipin after drug treatment. […] A decreased level of cardiolipin in PRELI or TRIAP1 depleted cells appears to accelerate the release of cytochrome c, rendering cells vulnerable to apoptosis. […] Cardiolipin is synthesized by a series of steps with phosphatidylglycerol (PG) as the precursor of last step catalyzing by cardiolipin synthase.

[15] = test system: cytochrome c release in A549 cells; experiment: Cytochrome c in cytosol fractions, western blotting; type: cell-based; details: for Level of cytochrome c in cytosol: 24-hour treatment; for Cytochrome c release with PG in medium: 24 hours, with PG versus without PG
Source text: as §3

[16] = test system: A549 cells; experiment: Cell viability with phosphatidylglycerol (PG) supplement, NBB assay; type: cell-based; details: 24 hours, PG supplemented DMEM versus DMEM
Experimental: FIG. 15C is a bar chart of the cell viability of A549 after treatment with 100 μM of CK or 12.5 μM of CKD-4 for 24 hours in DMEM or phosphatidylglycerol (PG) supplemented DMEM as mean±SD, ***P≤0.001.
as §3

[17] = target: T3, PRELID3b-TRIAP1-MBP (Homo sapiens, UniProt Q9Y3B1); experiment: Biolayer interferometry with his tag PRELID3b-TRIAP1-MBP; type: binding; details: for Kd: steady-state analysis, 1:1
T3 construct: made in house
T3 sequence (Q9Y3B1 whole entry): as the sequence (Q9Y3B1 whole entry) above
Source text: To validate the docking analysis, biolayer interferometry (BLI) was employed to measure the interaction between PRELID3b and CK or CKD-4. The recombinant protein was purified by co-expression of PRELID3b with a hexa-histidine tag and the p53 regulated protein, TRIAP1 conjugated with maltose binding protein (MBP). The reported crystal structure of RELID3b is in complex with TRIAP1 and they form as a swapped dimer. PRELID3b is intrinsically unstable in the absence of TRIAP1 and easily degraded by mitochondrial protease. Maltose binding protein (MBP) is a necessary component to improve the solubility of the whole protein complex.
(§4) The sensor used is coated with Ni NTA so that proteins with the hexa-histidine tag could be immobilized on the sensor. After immobilization with protein, the sensor was incubated with the compounds at different concentrations in an ascending order. Both the stoichiometry of CK or CKD-4 with PRELID3b is in a 1:1 ratio but the kinetic modes for the two cases are different. […] The result is consistent with the docking analysis showing that the interaction between CKD-4 and PRELID3b is stronger than with CK.

[18] = target: MBP (Escherichia coli, UniProt P0AEX9); experiment: Biolayer interferometry with his tag MBP (control); type: binding; details: various concentrations
Experimental: as §4

[19] = test system: NCI-H460 cells; experiment: MTT cytotoxicity in NCI-H460 cells
[20] = Solubility; type: physicochemical; details: even in dimethyl sulfoxide (DMSO)
[21] = test system: A549 cells; type: in vitro ADME; details: human, 10 μM
Source text: To explore the stability of CKD-4, the amount of CK in CKD-4 treated A549 cells was also quantified.

[22] = test system: lung cancer patient derived organoid; experiment: Lung cancer patient derived organoid viability, CellTiterGlo; type: cell-based; details: 72 hours
Experimental: as §1

[23] = test system: NCI-H460 cells
[24] = A549, 24 h, read-out: IC50 24 h
[25] = A549, 48 h, read-out: IC50 48 h
[26] = A549, 72 h, read-out: IC50 72 h
[27] = NCI-H1650, 24 h, read-out: IC50 24 h
[28] = NCI-H1650, 48 h, read-out: IC50 48 h
[29] = NCI-H1650, 72 h, read-out: IC50 72 h
[30] = Homo sapiens, NCI-H460, 24 h, read-out: IC50 24 h
[31] = Homo sapiens, NCI-H460, 48 h, read-out: Cytotoxicity IC50
[32] = Homo sapiens, NCI-H460, 72 h, read-out: IC50 72 h

Row | SMILES | IC50 [5, 24] [µM] | IC50 [5, 25] [µM] | IC50 [5, 26] [µM] | IC50 [6, 27] [µM] | IC50 [6, 28] [µM] | IC50 [6, 29] [µM] | IC50 ([7]; 24 h, read-out: IC50 24 h) [µM] | IC50 ([7]; 48 h, read-out: IC50 48 h) [µM] | IC50 ([7]; 72 h, read-out: IC50 72 h) [µM] | Body weight [10] | Tumor volume [10] | PRELID1 stability in PISA [11] | Amount of mitochondrial cardiolipin [14] | Kinetic mode (on/off rate) [17] | Kd [17] [µM] | Response with MBP [18] | IC50 [19, 30] [µM] | IC50 [19, 31] [µM] | IC50 [19, 32] [µM] | other results
1 | CC(C)=CCC[C@](C)(OC1O[C@H](CO)[C@@H](O)[C@H](O)[C@H]1O)C1CC[C@]2(C)C1[C@H](O)CC1[C@@]3(C)CC[C@H](O)C(C)(C)C3CC[C@]12C (stereo partly drawn) [CK, 20-O-β-(D-glucopyranosyl)-20(S)-protopanaxadiol, reference compound] | 67.1 ± 4.6 | 64 ± 3.3 | 59.1 ± 3.4 | 80.7 ± 3.7 | 71.3 ± 7.1 | 59.3 ± 2.8 | 73.6 ± 3.4 | 63.1 ± 2.7 | 42.3 ± 1.5 | No significant change in body weight | almost no difference | stabilized | decreased significantly | fast on/off rate | 55.7 | no does-dependent response | 64.7 ± 9.3 | 53.4 ± 2.4 | 40.5 ± 0.9 | IC50 [1]: 36.2 ± 1.2 µM; IC50 [2]: 49.8 ± 0.3 µM; IC50 [3]: 43.6 ± 1.6 µM; IC50 [4]: 46.2 ± 2.1 µM; Percentage of apoptotic cells ([8]; A549, 60 μM): significant increase in the percentage of apoptotic cells; Formation of tube ([9]; 40 μM): inhibited; Thermal stability of PRELID3b (CETSA) ([12]; 50 μM): stabilization; Thermal stability of PRELID1 (CETSA) ([13]; 50 μM): stabilization; Level of cytochrome c in cytosol ([15]; 50 μM): dramatically enhanced; Cytochrome c release with PG in medium ([15]; 50 μM): not observed; Cell viability with supplement of PG ([16]; A549, 100 μM): almost two-fold restored; IC50 ([19]; Homo sapiens, NCI-H460, 72 h, read-out: Cytotoxicity IC50): 45.1 ± 0.4 µM
2 | CC(=O)OCC1OC(OC(C)(CCC=C(C)C)C2CCC3(C)C2C(OC(C)=O)CC2C4(C)CCC(OC(C)=O)C(C)(C)C4CCC23C)C(OC(C)=O)C(OC(C)=O)C1OC(C)=O (centres unmarked) [CKD-1] | – | – | – | – | – | – | – | – | – | – | – | – | – | – | – | – | – | – | – | Solubility [20]: poor solubility; IC50 ([19]; read-out: Cytotoxicity IC50, NCI-H460 cells, 48 h (Table 2)): > 100 µM
3 | COc1ccc(C2OCC3OC(OC(C)(CCC=C(C)C)C4CCC5(C)C4C(O)CC4C6(C)CCC(O)C(C)(C)C6CCC45C)C(O)C(O)C3O2)cc1 (centres unmarked) [CKD-4] | 30.8 ± 3.7 | 23.9 ± 0.9 | 17.4 ± 1.2 | 43.7 ± 4.4 | 25.1 ± 1.5 | 20.3 ± 1.1 | 57.5 ± 0.6 | 25.9 ± 4.4 | 17.9 ± 2.8 | No significant change in body weight | significant tumor volume inhibition | stabilized | decreased significantly | slower | 5.3 | no does-dependent response | 23.3 ± 1.4 | 16.5 | 15.4 ± 0.1 | Amount of CK found in CKD-4 treated cells ([21]; 4 h): 1.33 % of total amount of CKD-4; Amount of CK found in CKD-4 treated cells ([21]; 24 h): 1.05 % of total amount of CKD-4; Percentage of apoptotic cells ([8]; A549, 20 μM): significant increase in the percentage of apoptotic cells; Formation of tube ([9]; 15 μM): inhibition is more obvious; Suppression of cell viability ([22]; 20 μM, CellTiterGlo): less than 30%; Growth of patient derived organoid ([22]; 5, 10, 20, 35 and 50 μM): significantly inhibits the growth of patient derived organoid in a dose dependent manner; Thermal stability of PRELID3b (CETSA) ([12]; 15 uM): stabilization; Thermal stability of PRELID1 (CETSA) ([13]; 15 μM): stabilization; Level of cytochrome c in cytosol ([15]; 15 μM): dramatically enhanced; Cytochrome c release with PG in medium ([15]; 15 μM): Reduced level of cytochrome c was released; Cell viability with supplement of PG ([16]; A549, 12.5 μM): almost two-fold restored; Kd smaller than Kd of CK [17]: ~7 fold; Cytotoxic potency in comparison with CK [23]: three-fold more potent
